Assay results as given in US11649233B2, “Halo-allylamine SSAO/VAP-1 inhibitor and use thereof” (Nanjing Transthera Biosciences Co., Ltd., priority 2017, dated 2023).
Counter-ions that a name gives are not always drawn.

Tests used:
MAO-B = MAO-B (Homo sapiens (Human), UniProt P27338); test: Selectivity of the compounds for MAO-B enzyme (MAO-Glo); assay type: biochemical; conditions: 60 minutes pre-incubation at 37° C.
Procedure: (§1) 2. Selectivity of the Compounds for MAO-A/B Enzymes
(§2) Microplate reader (Perkin Elmer, Envision), 384 well plates (Perkin Elmer), centrifuge (Eppendorf), MAO-Glo™ (Promega), MAO-A (Active Motif) and MAO-B (Active Motif).
(§3) An appropriate amount of the test compound was dissolved in DMSO to 10 mM and stored. Before the experiment, an appropriate amount of 10 mM test compound mother liquor was diluted to 100 μM solution with DMSO. Then 4-fold gradient dilution with DMSO was performed, and 6 concentration gradients were formed.
(§4) The MAO-A/B mother liquor was diluted to 2×concentration enzyme solution with the assay buffer solution for the MAO-A/B.
(§5) The mother liquor of the MAO-A/B substrate mixed solution was diluted to 2×concentration substrate mixed solution with the assay buffer solution for the MAO-A/B.
(§6) 200 nL of compound solutions of different concentrations or solvent
(§7) and 10 μL of 2×MAO-A/B enzyme solution were added to a 384-well plate, evenly mixed by oscillation, and incubated at 37° C. for 60 minutes. Then 10 μL of 2×substrate mixed solution was added to each well, and immediately the detection was performed with the microplate reader in a condition of an exciting light at 535 nm, an emitting light at 587 nm, the fluorescence intensity for detecting each well of 5 minutes/run, and a total detection time of 25 minutes.
(§8) The inhibition rate was calculated according to the following formula: V(RFU/min)=(Ft(RFU)−F0(RFU))/(Time(min)) Inhibition rate (%)=100%−Vcmpd(RFU/min)/V max(RFU/min)×100%
(§9) V: the fluorescence change rate; Ft: fluorescence reading at the time point t; F0: fluorescence reading at the time point 0; Time: time period t; Vcmpd: the fluorescence change rate of the test compound; Vmax: the Max well fluorescence change rate.
(§10) The log values of the concentrations were taken as the X-axis and the percent inhibition rates were taken as the Y-axis, and the dose-effect curve was fitted using the log(inhibitor) vs. response-Variable slope of the analytical software GraphPad Prism 5 to obtain the IC50 value of each compound for enzyme activity.

rhVAP-1 [1] = biological target: T1, rhVAP-1 (Homo sapiens (Human), UniProt Q16853); test: Inhibition activity of the compounds on the rhVAP-1 enzyme (Amplex Red/HRP fluorescence, benzylamine substrate); assay type: biochemical; conditions: 30 minutes pre-incubation at 37° C.
Procedure: 1. Inhibition Activity of the Compounds on the rhVAP-1 Enzyme
Multifunctional microplate reader (MD, FlexStation 3), black bottom-impermeable 96-well plate (Corning), rhVAP-1 (PeproTech)
as §3, with “10” for “100”, “3-fold” for “4-fold”, “10” for “6”
An appropriate amount of protein diluent was added to the rhVAP-1 powder to obtain 1 mg/mL of the mother liquor for storage. Before the experiment, the dilution with PBS provided a 4×concentration of the enzyme solution.
An appropriate amount of benzylamine was added to PBS and dissolved to obtain 200 mM of the benzylamine solution. 2 mM Amplex Red mother liquor and 500 U/mL HRP mother liquor were added. The dilution with PBS provided 2×concentration substrate mixed solution.
(§11) First, 10 μL of compound solutions of different concentrations, 25 μL of 4×rhVAP-1 enzyme solution and 15 μL of PBS were added to a 96-well plate, evenly mixed by oscillation, and incubated at 37° C. for 30 minutes. Then 50 μL of 2×substrate mixed solution was added to each well, and immediately the detection was performed with the microplate reader in a condition of an exciting light at 565 nm, an emitting light at 590 nm, the fluorescence intensity for detecting each well of 5 minutes/run, and a total detection time of 25 minutes. The inhibition rate was calculated according to the following formula: V(RFU/min)=(Ft(RFU)−F0(RFU))/(Time(min)) Inhibition rate (%)=100%−Vcmpd(RFU/min)/V max(RFU/min)×100%
as §9, §10

rhVAP-1 [2] = biological target: T1, rhVAP-1; test: Time-dependent inhibition assay for the rhVAP-1 enzyme; assay type: biochemical
Procedure: Biological example 4: Time-dependent inhibition assay for the rhVAP-1 enzyme
After incubation of the test substances at corresponding time intervals according to Table 4, the activity was measured at each time point in the same manner as in the rhVAP-1 enzymatic test method of biological example 1.
as §11, with “Specifically,” for “First,”, “concentrations or solvent,” for “concentrations,”, “0 minutes, 3 minutes, 6 minutes, 9 minutes and 12” for “30”, “minutes.” for “minutes. The inhibition rate was calculated according to the following formula: V(RFU/min)=(Ft(RFU)−F0(RFU))/(Time(min)) Inhibition rate (%)=100%−Vcmpd(RFU/min)/V max(RFU/min)×100%”

MAO-A = MAO-A (Homo sapiens (Human), UniProt P21397); test: Selectivity of the compounds for MAO-A enzyme (MAO-Glo); assay type: biochemical; conditions: 60 minutes pre-incubation at 37° C.
Procedure: as §1, §2, §3, §4, §5, §6, §7, §8, §9, §10

[3] = Stability test in human liver microsome; assay type: in vitro ADME; conditions: human liver microsome 0.5 mg protein/mL, compound 1 μM, β-NADPH
Procedure: Biological Example 3: Stability Test of the Compounds of the Present Invention in Human Liver Microsome
The composition of the incubation system:
(1) The liver microsome (20 mg protein/mL) was removed from the −80° C. refrigerator, pre-incubated in a 37° C. water bath constant temperature oscillator for 3 minutes, and thawed for use.
(2) A mixed solution of the incubation system (excluding compound and β-NADPH) according to the above “composition of the incubation system” for the test was prepared, and pre-incubated in a 37° C. water bath constant temperature oscillator for 2 minutes.
(3) Control group (excluding β-NADPH): 30 μL of water and 30 μL of compound working solution (concentration: 10 μM) were added to 240 μL of the mixed solution of the incubation system of step (2), and vortexed for 30 seconds to mix well. The total reaction volume was 300 μL. A duplicate sample was prepared. The sample was incubated in a 37° water bath constant temperature oscillator. The timing began and the sampling time points were set at 0 minute and 60 minutes.
(4) Sample group: 70 μL β-NADPH solution (10 mM) and 70 μL compound working solution (concentration: 10 μM) were added to 560 μL of the mixed solution in step (2). The total reaction volume was 700 μL. The resulting mixture was vortexed for 30 seconds to mix well. A duplicate sample was prepared. The sample was incubated in a 37° C. water bath constant temperature oscillator. The timing began and the sampling time points were set at 0 minute, 5 minutes, 10 minutes, 20 minutes, 30 minutes, and 60 minutes after timing.
(5) After vortexing for 3 minutes, the sample was centrifuged at 12000 rpm for 5 minutes.
(6) 150 μL of water was added to 50 μL of the supernatant. The resulting mixture was evenly mixed in vortex, and the sample LC/MS/MS analysis was performed.

MAO-B, sequence (P27338 whole entry): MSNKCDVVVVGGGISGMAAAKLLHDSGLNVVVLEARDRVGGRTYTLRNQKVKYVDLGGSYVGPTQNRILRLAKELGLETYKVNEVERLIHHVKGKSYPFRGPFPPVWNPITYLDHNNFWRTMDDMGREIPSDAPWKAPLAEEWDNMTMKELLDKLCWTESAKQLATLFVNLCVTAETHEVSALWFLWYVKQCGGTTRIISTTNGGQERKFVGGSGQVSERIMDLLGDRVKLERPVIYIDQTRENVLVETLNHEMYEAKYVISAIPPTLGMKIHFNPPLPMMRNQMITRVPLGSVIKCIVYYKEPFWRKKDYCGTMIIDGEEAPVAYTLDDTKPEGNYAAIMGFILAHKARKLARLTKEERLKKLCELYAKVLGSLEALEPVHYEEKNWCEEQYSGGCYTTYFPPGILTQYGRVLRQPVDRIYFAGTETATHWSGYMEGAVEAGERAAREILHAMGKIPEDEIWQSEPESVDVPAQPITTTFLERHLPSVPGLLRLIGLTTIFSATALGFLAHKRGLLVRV
T1 sequence (Q16853 whole entry): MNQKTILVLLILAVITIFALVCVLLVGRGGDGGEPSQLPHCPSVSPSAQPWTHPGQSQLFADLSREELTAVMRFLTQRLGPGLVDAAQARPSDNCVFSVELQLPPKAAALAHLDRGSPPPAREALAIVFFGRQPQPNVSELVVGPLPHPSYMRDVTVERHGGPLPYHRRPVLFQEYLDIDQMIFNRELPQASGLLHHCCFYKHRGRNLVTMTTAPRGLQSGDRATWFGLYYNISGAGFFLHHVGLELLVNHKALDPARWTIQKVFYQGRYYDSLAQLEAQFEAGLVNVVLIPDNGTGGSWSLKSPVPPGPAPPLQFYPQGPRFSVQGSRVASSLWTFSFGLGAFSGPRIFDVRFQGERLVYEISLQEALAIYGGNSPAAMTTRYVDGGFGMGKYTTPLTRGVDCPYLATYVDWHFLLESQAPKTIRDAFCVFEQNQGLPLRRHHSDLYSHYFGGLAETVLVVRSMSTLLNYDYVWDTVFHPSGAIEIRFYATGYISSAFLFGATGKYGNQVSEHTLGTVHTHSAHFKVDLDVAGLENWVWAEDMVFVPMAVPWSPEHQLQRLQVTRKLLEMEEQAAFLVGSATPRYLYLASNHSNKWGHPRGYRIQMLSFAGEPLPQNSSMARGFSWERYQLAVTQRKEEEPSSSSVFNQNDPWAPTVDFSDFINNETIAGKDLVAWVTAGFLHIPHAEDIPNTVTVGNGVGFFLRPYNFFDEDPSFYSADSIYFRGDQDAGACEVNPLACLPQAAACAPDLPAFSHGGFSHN
MAO-A, sequence (P21397 whole entry): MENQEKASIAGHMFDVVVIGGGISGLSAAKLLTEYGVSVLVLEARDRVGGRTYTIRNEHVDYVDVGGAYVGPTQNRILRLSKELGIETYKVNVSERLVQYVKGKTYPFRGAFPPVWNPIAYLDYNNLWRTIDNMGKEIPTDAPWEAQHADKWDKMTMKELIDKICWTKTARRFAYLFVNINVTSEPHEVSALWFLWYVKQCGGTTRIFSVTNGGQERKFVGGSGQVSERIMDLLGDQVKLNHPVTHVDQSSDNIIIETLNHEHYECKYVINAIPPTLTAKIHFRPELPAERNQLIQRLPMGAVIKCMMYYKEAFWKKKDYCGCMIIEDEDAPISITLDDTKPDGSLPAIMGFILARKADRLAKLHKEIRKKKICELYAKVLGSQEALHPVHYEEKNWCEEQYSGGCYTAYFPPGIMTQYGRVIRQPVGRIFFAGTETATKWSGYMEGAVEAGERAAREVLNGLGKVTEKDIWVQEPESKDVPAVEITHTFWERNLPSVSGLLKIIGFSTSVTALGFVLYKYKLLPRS

NC/C(=C/F)COc1ccc2c(c1)CCN(C1CC1)C2=O [Hydrochloride of Compound 34, (Z)-6-((2-(aminomethyl)-3-fluoroallyl)oxy)-2-cyclopropyl-3,4-dihydroisoquinolin-1(2H)-one] showed an IC50 (MAO-B) of 8400 nM and an IC50 (rhVAP-1 [1]) of 6 nM.

With NC/C(=C/F)COc1ccc2c(n1)CCN(C1CC1)C2=O [Trifluoroacetate of Compound 23, (Z)-2-((2-(aminomethyl)-3-fluoroallyl)oxy)-6-cyclopropyl-7,8-dihydro-1,6-naphthyridin-5(6H)-one] the IC50 (MAO-B) was 19000 nM, the IC50 (rhVAP-1 [2]; pre-incubation 0 minute) was 206 nM and the IC50 (rhVAP-1 [2]; pre-incubation 3 minutes) was 18.6 nM. For the same molecule, the IC50 (rhVAP-1 [2]; pre-incubation 6 minutes) was 15.2 nM, the IC50 (rhVAP-1 [2]; pre-incubation 9 minutes) was 14 nM and the IC50 (rhVAP-1 [2]; pre-incubation 12 minutes) was 12.5 nM. For the same molecule, the IC50 (rhVAP-1 [1]) was 14 nM and the IC50 (MAO-A) was 10000 nM.

Work on NC/C(=C/F)COc1cc2c(cn1)C(=O)N(C1CC1)CC2 [Trifluoroacetate of Compound 32, (Z)-6-((2-(aminomethyl)-3-fluoroallyl)oxy)-2-cyclopropyl-3,4-dihydro-2,7-naphthyridine-1(2H)-one] yielded an IC50 (MAO-B) of 6600 nM and an IC50 (rhVAP-1 [1]) of 11 nM.

In the case of NC/C(=C\F)COc1cc2c(cn1)C(=O)N(C1CC1)CC2 [Compound 22, (E)-6-((2-(aminomethyl)-3-fluoroallyl)oxy)-2-cyclopropyl-3,4-dihydro-2,7-naphthyridin-1(2H)-one], the ClH [3] is reported as 2.94 mL/min/kg.

For NC/C(=C/F)COc1ccc2c(n1)CN(C1CC1)C2=O [Trifluoroacetate of Compound 25, (Z)-2-((2-(aminomethyl)-3-fluoroallyl)oxy)-6-cyclopropyl-6,7-dihydro-5H-pyrrolo[3,4-b]pyridin-5-one], the IC50 (MAO-B) was 13000 nM and the IC50 (rhVAP-1 [1]) was 25 nM.

Work on NC/C(=C/F)COc1ccc2c(n1)CCN(C1CC1)C2=O [Compound 23, (Z)-2-((2-(aminomethyl)-3-fluoroallyl)oxy)-6-cyclopropyl-7,8-dihydro-1,6-naphthyridin-5(6H)-one] yielded a ClH [3] of 4.63 mL/min/kg.

For Cl.NC/C(=C/F)COc1cnc2c(c1)CN(C1CC1)C2=O [Hydrochloride of Compound 28, (Z)-3-((2-(aminomethyl)-3-fluoroallyl)oxy)-6-cyclopropyl-5,6-dihydro-7H-pyrrolo[3,4-b]pyridin-7-one], the ClH [3] was “→0 mL/min/kg”, the IC50 (MAO-B) was 20000 nM and the IC50 (rhVAP-1 [1]) was 14 nM.

NC/C(=C\F)COc1cnc2c(c1)CN(C1CC1)C2=O [Hydrochloride of Compound 27, (E)-3-((2-(aminomethyl)-3-fluoroallyl)oxy)-6-cyclopropyl-5,6-dihydro-7H-pyrrolo[3,4-b]pyridin-7-one] showed an IC50 (MAO-B) of 38000 nM and an IC50 (rhVAP-1 [1]) of 16 nM.

With NC/C(=C\F)COc1ccc2c(n1)CN(C1CC1)C2=O [Trifluoroacetate of Compound 24, (E)-2-((2-(aminomethyl)-3-fluoroallyl)oxy)-6-cyclopropyl-6,7-dihydro-5H-pyrrolo[3,4-b]pyridin-5-one] the ClH [3] was “→0 mL/min/kg”, the IC50 (MAO-B) was 37000 nM and the IC50 (rhVAP-1 [1]) was 24 nM.

With NC/C(=C\F)COc1cnc2c(c1)CCNC2=O [Hydrochloride of Compound 8, (E)-3-((2-(aminomethyl)-3-fluoroallyl)oxy)-6,7-dihydro-1,7-naphthyridin-8(5H)-one] the IC50 (MAO-B) was > 100000 nM and the IC50 (rhVAP-1 [1]) was 30 nM.

In the case of NC/C(=C\F)COc1ccc2c(n1)CCN(C1CC1)C2=O [Trifluoroacetate of Compound 26, (E)-2-((2-(aminomethyl)-3-fluoroallyl)oxy)-6-cyclopropyl-7,8-dihydro-1,6-naphthyridin-5(6H)-one], the IC50 (MAO-B) is reported as 8800 nM and the IC50 (rhVAP-1 [1]) is reported as 51 nM.

With Cl.NC/C(=C\F)COc1ccc2c(c1)CN(C1CC1)C2=O [Hydrochloride of Compound 16, (E)-5-((2-(aminomethyl)-3-fluoroallyl)oxy)-2-cyclopropyl isoindolin-1-one] the ClH [3] was 0.18 mL/min/kg, the IC50 (MAO-B) was 2800 nM and the IC50 (rhVAP-1 [1]) was 24 nM.

With Cl.NC/C(=C/F)COc1ccc2c(c1)CN(C1CC1)C2=O [Hydrochloride of Compound 29, (Z)-5-((2-(aminomethyl)-3-fluoroallyl)oxy)-2-cyclopropylisoindolin-1-one] the ClH [3] was 4.18 mL/min/kg, the IC50 (MAO-B) was 4100 nM and the IC50 (rhVAP-1 [1]) was 25 nM.

Work on NC/C(=C\F)COc1ccc2c(c1)C(=O)N(C1CC1)C2=O [Hydrochloride of Compound 30, (E)-5-((2-(aminomethyl)-3-fluoroallyl)oxy)-2-cyclopropyl isoindolin-1,3-dione] yielded an IC50 (MAO-B) of 5800 nM and an IC50 (rhVAP-1 [1]) of 32 nM.

Molecule Cl.NC/C(=C\F)COc1cc2c(cn1)C(=O)N(C1CC1)C2 [Hydrochloride of Compound 21, (E)-6-((2-(aminomethyl)-3-fluoroallyl)oxy)-2-cyclopropyl-1,2-dihydro-3H-pyrrolo-[3,4-c]pyridin-3-one] has a ClH [3] of 4.95 mL/min/kg, an IC50 (MAO-B) of 14000 nM and an IC50 (rhVAP-1 [1]) of 21 nM. The IC50 (MAO-A) was > 100000 nM.

NC/C(=C/F)COc1cc2c(cn1)C(=O)N(C1CC1)C2 [Trifluoroacetate of Compound 33, (Z)-6-((2-(aminomethyl)-3-fluoroallyl)oxy)-2-cyclopropyl-1,2-dihydro-3H-pyrrolo-[3,4-c]pyridin-3-one] gave an IC50 (MAO-B) of 8600 nM and an IC50 (rhVAP-1 [1]) of 14 nM.

For NC/C(=C/F)COc1ccc2c(c1)C(=O)N(C1CC1)C2=O [Hydrochloride of Compound 31, (Z)-5-((2-(aminomethyl)-3-fluoroallyl)oxy)-2-cyclopropylisoindolin-1,3-dione], the IC50 (rhVAP-1 [1]) was 11 nM.

With CCN(CC)C(=O)c1ccc(OC/C(=C/F)CN)cn1.Cl [Hydrochloride of Compound 19, (E)-5-((2-(aminomethyl)-3-fluoroallyl)oxy)-N,N-diethylpicolinamide] the ClH [3] was “→0 mL/min/kg” and the IC50 (rhVAP-1 [1]) was 21 nM.
